Experimental data published in US12643899B2, “Antiviral agents, uses thereof and methods for their preparation” (The University of British Columbia, priority 2020, dated 2026).

Key:
[1] = tested on: ZIKV; experiment: NS1 and dsRNA in ZIKV-infected brain organoids; format: cell-based, Zika virus; conditions: 10 μM, 69 hours, MOI 1
Description: FIG. 17 is a schematic showing the general method 20 used in Example 6. Referring to FIG. 17, following growth of the brain organoids in STEMdiff™ media 22 (4 organoids/well), the media was aspirated 24. Then, 500 μL ZIKV at the desired MOI in fresh media was added 26 and the brain organoids incubated at 37° C. for 3 hours with gentle shaking 28. The brain organoids were then washed with 2×1 mL PBS 30, and fresh media and CA or cladoniamide C (CC) added to the desired concentration 32 prior to incubation for the desired time at 37° C. 34. The supernatant was collected and frozen at −86° C. 36 prior to analysis and the brain organoids transferred to an Eppendorf with paraformaldehyde for electron microscopy 38.
FIG. 18 is a plot showing the anti-ZIKV activity of cladoniamide A (incubation with 1 μM CA for 72 hours; 2 biological replicates, each with 4 organoids/well) using four brain organoid systems. There was a greater than 4-log reduction in extracellular ZIKV titer when treated with CA. […] FIGS. 20 and 21 show plots showing the anti-ZIKV activity of CA and CC (incubation with 10 μM CA or CC for 69 hours, MOI 1; 4 technical replicates as there were 4 organoids/[…]).

[2] = tested on: ZIKV; experiment: ZIKV infectivity by semisolid overlay plaque assay after pre-treatment of A549 and U87 MG cells; format: cell-based, Zika virus; conditions: CD 15 μM, A549 and U87 MG cells, FIG. 3
[3] = tested on: SARS-CoV-2; experiment: SARS-CoV-2 intracellular viral RNA and nucleocapsid protein in Caco-2 cells; format: cell-based; conditions: Human Caco-2 cells, 3 hours pre-treatment
[4] = tested on: ZIKV; experiment: ZIKV viral dsRNA imaging (Cellomics ArrayScan VTI) in A549 cells; format: cell-based, Zika virus; conditions: 15 μM, 1 h pre-treatment, MOI 1, 48 h
[5] = tested on: DENV; experiment: Activity against DENV (summary statement, method not described); format: cell-based, dengue virus
[6] = tested on: A549 cells; experiment: MTS cytotoxicity assay in A549 cells; format: cell-based, human; conditions: 48 h
Description: An MTS assay was performed to determine the cytotoxicity concentration 50% (CC50) of cladoniamide A (CA) in human A549 cells, a cell line from human lung carcinoma. Various concentrations of CA were added to cultured A549 cells and incubated (37° C., 5% CO2) for 48 h. Cell viability was then measured by an MTS assay kit (CellTiter 96™ Aqueous One Solution cell proliferation assay, Promega) according to the manufacturer's instructions. Curve fitting was performed in Igor Pro (WaveMetrics) using a hyperbolic fit algorithm (FIG. 1). The CC50 of CA in A549 cells was determined to be 54±5 μM. An MTS assay was also performed to determine the CC50 of CA in human U87 MG cells, a cell line from human brain. Various concentrations of CA were added to cultured U87 MG cells and incubated (37° C., 5% CO2) for 48 h. Cell viability was then measured by an MTS assay kit (CellTiter 96 Aqueous One Solution cell proliferation assay, Promega) according to the manufacturer's instructions. Curve fitting was performed in Igor Pro (WaveMetrics) using a hyperbolic fit algorithm (FIG. 2).

[7] = tested on: ZIKV; experiment: Secreted NS1 (sNS1) ELISA, ZIKV-infected A549 cells; format: cell-based, Zika virus; conditions: 24 h pre-treatment, MOI 1.0, 2 d
Description: Error bars represent SD among 2 biological replicates.
Cultured A549 cells were treated with various concentrations of CA or PF-429242 for 24 h before being washed with PBS and inoculated with ZIKV (ZIKV strain VR 1843, Puerto Rico, 2015; ATCC) at MOI 1.0 for 1 h. Following the removal of the inoculum, cells were incubated in fresh media for 2 d before the supernatant was collected, clarified, and secreted NS1 protein abundance was measured by an ELISA kit (BioFront Technologies) according to the manufacturer's instructions. Curve fitting was performed in Igor Pro (WaveMetrics) using a hyperbolic fit algorithm (FIG. 4; upper and middle plots) and IC50 and TI values obtained. IC50 and TI values were also obtained for CA via plaque assay (PFU; FIG. 4, lower plot). FIG. 4 (upper plot) is an ED50 curve for the PF inhibitor based on the detection of secreted Non-Structural protein 1 (sNS1), secreted viral biomarker. sNS1 was detected using an Elisa test (commercially available). FIG. 4 (middle plot) is an ED50 curve for CA based on the detection of secreted Non-Structural protein 1 (sNS1), secreted viral biomarker. sNS1 was detected using an Elisa test (commercially available).

With COc1c2n(c3ccccc13)[C@]1(O)C(=O)N(C)C(=O)[C@]1(O)c1c-2[nH]c2ccccc12 [CC, (11S,15R)-11,15-dihydroxy-23-methoxy-13-methyl-3,13,16-triazahexacyclo[14.7.0.0^2,10.0^4,9.0^11,15.0^17,22]tricosa-1(23),2(10),4,6,8,17,19,21-octaene-12,14-dione] the “anti-ZIKV activity in brain organoids (NS1, dsRNA)” value [1] was “showed anti-ZIKV activity”.

In the case of CNC(=O)[C@]1(O)C(=O)c2c([nH]c3ccc(Cl)cc23)-c2c(OC)c3ccccc3n21 [CD, (12R)-7-chloro-12-hydroxy-20-methoxy-N-methyl-11-oxo-3,13-diazapentacyclo[11.7.0.0^2,10.0^4,9.0^14,19]icosa-1(20),2(10),4(9),5,7,14,16,18-octaene-12-carboxamide], the “inhibitory effect on production of infectious ZIKV virions” value [2] is reported as “did not show any inhibitory effect”, the “antiviral effect against SARS-CoV-2” value [3] is reported as “no antiviral effect” and the “activity against ZIKV (viral dsRNA)” value [4] is reported as “did not show any inhibitory effect”. For the same compound, the “activity against DENV” value [5] was “no activity”.

CNC(=O)[C@]1(O)C(=O)c2c([nH]c3ccc(Cl)cc23)-c2c(OC)c3cc(Cl)ccc3n21 [CE, (12R)-7,17-dichloro-12-hydroxy-20-methoxy-N-methyl-11-oxo-3,13-diazapentacyclo[11.7.0.0^2,10.0^4,9.0^14,19]icosa-1(20),2(10),4(9),5,7,14(19),15,17-octaene-12-carboxamide] was tested, and the “activity against ZIKV (viral dsRNA)” value [4] was “did not show any inhibitory effect”.

For CNC(=O)[C@@]1(O)C(=O)n2c(c(OC)c3ccccc32)-c2[nH]c3ccc(Cl)cc3c21 [CF, (11R)-7-chloro-11-hydroxy-20-methoxy-N-methyl-12-oxo-3,13-diazapentacyclo[11.7.0.0^2,10.0^4,9.0^14,19]icosa-1(20),2(10),4(9),5,7,14,16,18-octaene-11-carboxamide], the “activity against ZIKV (viral dsRNA)” value [4] was “did not show any inhibitory effect”.

CCN(CC)Cc1ccc(C(=O)N(CCc2ccccc2OC)[C@@H]2CCNC2)cc1 [PF, PF-429242, reference compound] showed a CC50 [6] of 69 µM and an IC50 [7] of 13 µM.
